Toxic doses and inconclusive results are not listed. No stated cut-off is given here; in the data, active means T/C of 150% or more; inactive means T/C below 125%.
Test system: L1210 leukemia ip in BDF1 mice, survival T/C
Test: NCI In Vivo Anticancer Drug Screen. Data for tumor model L1210 Leukemia (intraperitoneal) in B6D2F1 (BDF1) mice
Details: endpoint: mean survival time, higher = longer survival
How it was run: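 Survival endpoint. Drug-treated group vs vehicle group, expressed as T divided by C. Tumor passaged by transplantation.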

[1] = dose: 100.0 mg/kg/injection, schedule: Q01DX001 (ip), vehicle: saline
[2] = dose: 100.0 mg/kg/injection, schedule: Q04DX003 (ip), vehicle: saline
[3] = dose: 200.0 mg/kg/injection, schedule: Q01DX001 (ip), vehicle: saline
[4] = dose: 200.0 mg/kg/injection, schedule: Q04DX003 (ip), vehicle: saline
[5] = dose: 100.0 mg/kg/injection, schedule: Q04DX002 (ip), vehicle: saline with Tween-80
[6] = dose: 100.0 mg/kg/injection, schedule: Q01DX009 (ip), vehicle: Klucel (hydroxypropylcellulose) (HPC)
[7] = dose: 200.0 mg/kg/injection, schedule: Q01DX009 (ip), vehicle: Klucel (hydroxypropylcellulose) (HPC)
[8] = dose: 400.0 mg/kg/injection, schedule: Q01DX009 (ip), vehicle: Klucel (hydroxypropylcellulose) (HPC)

Measured: T/C

COc1cccc(N=Nc2c(N)nc(N)[nH]c2=O)c1
inactive: dose: 50.0 mg/kg/injection, schedule: Q01DX009 (ip), vehicle: saline 90 % of control | dose: 50.0 mg/kg/injection, schedule: Q04DX003 (ip), vehicle: saline 101 % of control | [1] 104 % of control | dose: 100.0 mg/kg/injection, schedule: Q01DX009 (ip), vehicle: saline 92 % of control | [2] 98 % of control | [3] 107 % of control | dose: 200.0 mg/kg/injection, schedule: Q01DX009 (ip), vehicle: saline 95 % of control | [4] 102 % of control | dose: 400.0 mg/kg/injection, schedule: Q01DX001 (ip), vehicle: saline 104 % of control

O=[N+]([O-])c1ccc(-n2cnnn2)cc1
inactive: dose: 100.0 mg/kg/injection, schedule: Q01DX001 (ip), vehicle: carboxymethylcellulose (CMC) 94 % of control | dose: 200.0 mg/kg/injection, schedule: Q01DX001 (ip), vehicle: carboxymethylcellulose (CMC) 100 % of control | dose: 400.0 mg/kg/injection, schedule: Q01DX001 (ip), vehicle: carboxymethylcellulose (CMC) 91 % of control

Cc1c(O)cc(O)cc1O
inactive: [1] 96 % of control | [3] 98 % of control

CCOC(=O)/C(C#N)=C/c1cc2c3c(c1)CCCN3CCC2
inactive: dose: 50.0 mg/kg/injection, schedule: Q04DX003 (ip), vehicle: saline with Tween-80 111 % of control | dose: 100.0 mg/kg/injection, schedule: Q04DX003 (ip), vehicle: saline with Tween-80 93 % of control | dose: 200.0 mg/kg/injection, schedule: Q04DX003 (ip), vehicle: saline with Tween-80 93 % of control | dose: 400.0 mg/kg/injection, schedule: Q04DX003 (ip), vehicle: saline with Tween-80 92 % of control

CCOc1ccc(Cl)cc1Cl
inactive: dose: 100.0 mg/kg/injection, schedule: Q04DX002 (ip), vehicle: saline 109 % of control | dose: 200.0 mg/kg/injection, schedule: Q04DX002 (ip), vehicle: saline 113 % of control | dose: 400.0 mg/kg/injection, schedule: Q04DX002 (ip), vehicle: saline 106 % of control

CP(=O)(CCP(=O)(c1ccccc1)c1ccccc1)c1ccccc1 (stereo not drawn)
inactive: dose: 25.0 mg/kg/injection, schedule: Q04DX002 (ip), vehicle: saline with Tween-80 94 % of control | dose: 50.0 mg/kg/injection, schedule: Q04DX002 (ip), vehicle: saline with Tween-80 106 % of control | [5] 97 % of control

CC(=O)c1ccc(CCC(=O)O)cc1
inactive: [5] 94 % of control | dose: 200.0 mg/kg/injection, schedule: Q04DX002 (ip), vehicle: saline with Tween-80 98 % of control | dose: 400.0 mg/kg/injection, schedule: Q04DX002 (ip), vehicle: saline with Tween-80 90 % of control

O=S(=O)(O)c1ccccn1
inactive: [2] 98 % of control | [4] 93 % of control

O=C(Nc1cccc2nsnc12)c1ccc(C(=O)Nc2cccc3nsnc23)cc1
inactive: dose: 100.0 mg/kg/injection, schedule: Q01DX001 (ip), vehicle: other 94 % of control | dose: 200.0 mg/kg/injection, schedule: Q01DX001 (ip), vehicle: other 88 % of control | dose: 400.0 mg/kg/injection, schedule: Q01DX001 (ip), vehicle: other 98 % of control

Cn1nnnc1CCO
inactive: dose: 100.0 mg/kg/injection, schedule: Q01DX001 (ip), vehicle: acetone 94 % of control | dose: 200.0 mg/kg/injection, schedule: Q01DX001 (ip), vehicle: acetone 97 % of control | dose: 400.0 mg/kg/injection, schedule: Q01DX001 (ip), vehicle: acetone 97 % of control

Cc1ccc(S(=O)(=O)Nc2cc(Cl)c(I)c(Cl)c2)cc1
inactive: [6] 96 % of control | [7] 102 % of control | [8] 100 % of control

CCc1cccc(CC)c1NC(=S)NN
inactive: [5] 103 % of control

Cc1nc(C)c([N+](=O)[O-])s1
inactive: [6] 93 % of control | dose: 100.0 mg/kg/injection, schedule: Q04DX003 (ip), vehicle: Klucel (hydroxypropylcellulose) (HPC) 100 % of control | [7] 94 % of control | dose: 200.0 mg/kg/injection, schedule: Q04DX003 (ip), vehicle: Klucel (hydroxypropylcellulose) (HPC) 96 % of control | [8] 101 % of control | dose: 400.0 mg/kg/injection, schedule: Q04DX003 (ip), vehicle: Klucel (hydroxypropylcellulose) (HPC) 100 % of control

CCCCCCCC(O)CCC(=O)NN (stereo not drawn)
inactive: dose: 25.0 mg/kg/injection, schedule: Q01DX009 (ip), vehicle: saline with Tween-80 98 % of control | dose: 50.0 mg/kg/injection, schedule: Q01DX009 (ip), vehicle: saline with Tween-80 102 % of control | dose: 100.0 mg/kg/injection, schedule: Q01DX009 (ip), vehicle: saline with Tween-80 106 % of control

O=C(NCCCl)C(=O)NCCCl
inactive: dose: 100.0 mg/kg/injection, schedule: Q04DX002 (ip), vehicle: Klucel (hydroxypropylcellulose) (HPC) 104 % of control | dose: 200.0 mg/kg/injection, schedule: Q04DX002 (ip), vehicle: Klucel (hydroxypropylcellulose) (HPC) 107 % of control | dose: 400.0 mg/kg/injection, schedule: Q04DX002 (ip), vehicle: Klucel (hydroxypropylcellulose) (HPC) 93 % of control

CCC(COC(=O)c1ccc(N)cc1)NC(CC(C)C)CC(C)C (stereo not drawn)
inactive: dose: 75.0 mg/kg/injection, schedule: Q01DX001 (ip), vehicle: carboxymethylcellulose (CMC) 89 % of control | dose: 300.0 mg/kg/injection, schedule: Q01DX001 (ip), vehicle: carboxymethylcellulose (CMC) 91 % of control
